Laboratory results as given in PubChem BioAssay (NCI).
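Tested at 5 concentrations; 48 h exposure; 96-well plates; endpoints linearly interpolated, else capped at highest concentration. At the TGI there is no net growth.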

Legend:
Experiment in all cases: NCI-60 cell line screen, 48 h
UACC-257 melanoma = system: UACC-257 melanoma
HCC-2998 colon = system: HCC-2998 colon
NCI-H522 lung = system: NCI-H522 lung
ACHN renal = system: ACHN renal
OVCAR-4 ovarian = system: OVCAR-4 ovarian
TK-10 renal = system: TK-10 renal
CCRF-CEM leukemia = system: CCRF-CEM leukemia
MOLT-4 leukemia = system: MOLT-4 leukemia
SK-MEL-28 melanoma = system: SK-MEL-28 melanoma
M14 melanoma = system: M14 melanoma
OVCAR-3 ovarian = system: OVCAR-3 ovarian
OVCAR-5 ovarian = system: OVCAR-5 ovarian
NCI/ADR-RES ovarian = system: NCI/ADR-RES ovarian
SF-295 CNS = system: SF-295 CNS
MDA-MB-435 = system: MDA-MB-435
SK-OV-3 ovarian = system: SK-OV-3 ovarian
BT-549 breast = system: BT-549 breast

| SMILES | TGI (UACC-257 melanoma) | TGI (HCC-2998 colon) | TGI (NCI-H522 lung) | TGI (ACHN renal) | TGI (OVCAR-4 ovarian) | TGI (TK-10 renal) | TGI (CCRF-CEM leukemia) | TGI (MOLT-4 leukemia) | TGI (SK-MEL-28 melanoma) | TGI (M14 melanoma) | TGI (OVCAR-3 ovarian) | TGI (OVCAR-5 ovarian) | TGI (NCI/ADR-RES ovarian) | TGI (SF-295 CNS) | TGI (MDA-MB-435) | TGI (SK-OV-3 ovarian) | TGI (BT-549 breast) |
| --- | --- | --- | --- | --- | --- | --- | --- | --- | --- | --- | --- | --- | --- | --- | --- | --- | --- |
| COc1ccc2c(c1)CCC(OS(=O)(=O)CC13CCC(CC1=O)C3(C)C)C2=O (centres undefined) | > 100 µM | 50.9 µM | 53.7 µM | > 100 µM | > 100 µM | 95.9 µM | > 100 µM | 55.9 µM | > 100 µM | > 100 µM | 66.9 µM | > 100 µM |  |  |  |  |  |
| COP(=O)(OC)/C(=C\c1cn(C(c2ccccc2)(c2ccccc2)c2ccccc2)cn1)NC(C)=O | > 100 µM | > 100 µM | > 100 µM | > 100 µM | > 100 µM | > 100 µM | > 100 µM | > 100 µM | > 100 µM | > 100 µM | > 100 µM | > 100 µM | > 100 µM | > 100 µM | > 100 µM | > 100 µM |  |
| O=C(CC1C(=O)c2ccccc2C1=C1C(=O)c2ccccc2C1=O)c1ccccc1 (centres undefined) | > 100 µM | > 100 µM | 97.3 µM | > 100 µM | > 100 µM | > 100 µM | > 100 µM | > 100 µM | > 100 µM | > 100 µM |  | > 100 µM |  | > 100 µM |  | > 100 µM |  |
| N#Cc1sc2c(c1O)c(=O)n(-c1ccccc1)c(=S)n2-c1ccccc1 | > 100 µM | > 100 µM | > 100 µM | > 100 µM | > 100 µM | > 100 µM |  |  | > 100 µM | > 100 µM | > 100 µM | > 100 µM |  | > 100 µM | > 100 µM |  | > 100 µM |
| O=C1Oc2cc3c(c4cccc1c24)O[C@H](c1ccccc1)[C@@H](c1ccccc1)[C@@H]3c1ccc(Cl)cc1 | > 100 µM | > 100 µM | > 100 µM | > 100 µM | > 100 µM | > 100 µM | > 100 µM | 64.3 µM | > 100 µM | > 100 µM | > 100 µM | > 100 µM | > 100 µM | > 100 µM | > 100 µM | > 100 µM |  |
| Cc1cccc2c(=O)c3cccc([C@@H](C)C(=O)O)c3oc12 | > 100 µM | > 100 µM | > 100 µM | > 100 µM | > 100 µM | > 100 µM | > 100 µM | > 100 µM | > 100 µM | > 100 µM | > 100 µM |  | > 100 µM | > 100 µM | > 100 µM | > 100 µM |  |
| CCC(=O)N/N=C(\C=C\c1cccc(O)c1)c1sc(Nc2ccc(C)cc2[N+](=O)[O-])nc1C | > 100 µM | > 100 µM | > 100 µM | > 100 µM | > 100 µM | > 100 µM | > 100 µM | > 100 µM | > 100 µM | > 100 µM | > 100 µM | > 100 µM |  | > 100 µM |  | > 100 µM |  |
| COc1cc(C(=O)Oc2c(C#N)sc3c2c(=O)n(-c2ccccc2)c(=S)n3-c2ccccc2)cc(OC)c1OC | > 100 µM | 45.2 µM | 2.11 µM | > 100 µM | 80.9 µM | 95.9 µM | 28.9 µM | 40.6 µM | 46.3 µM | 25.6 µM | > 100 µM | 46.7 µM | 41.3 µM | 27.9 µM | 36.8 µM | > 100 µM |  |
| N#CC1=C(Cl)NC(Cl)=C(C#N)C1c1c(Cl)cccc1Cl | 50.3 µM | 47 µM | 38.1 µM | > 100 µM |  | > 100 µM | 54.5 µM | > 100 µM | > 100 µM | > 100 µM | 64.4 µM | > 100 µM |  | > 100 µM |  | 88.8 µM |  |
| CC(C)C(NC(=O)C(Cc1ccccc1)NC(=O)[C@H]1CCC[C@H]1NC(=O)C(N)Cc1ccc(O)cc1)C(N)=O (some centres undefined) | > 100 µM | > 100 µM | > 100 µM | > 100 µM | > 100 µM | > 100 µM | > 100 µM | > 100 µM | > 100 µM | > 100 µM | > 100 µM | > 100 µM | > 100 µM | > 100 µM | > 100 µM | > 100 µM |  |
| Cc1cc(N(CCC#N)CCC#N)ccc1C=Nc1ccc(C(=O)NN2C(=O)/C(=C/c3ccc(N(CCC#N)CCC#N)cc3)N=C2c2cc([N+](=O)[O-])ccc2Cl)cc1 | > 100 µM | > 100 µM |  | > 100 µM | > 100 µM | > 100 µM | > 100 µM |  | > 100 µM | > 100 µM | > 100 µM | > 100 µM |  |  |  | > 100 µM |  |
| O=C(/C=C1/Nc2ccc([N+](=O)[O-])cc2NC1O)c1cccc([N+](=O)[O-])c1 (centres undefined) | > 100 µM | > 100 µM | > 100 µM | > 100 µM | 11.1 µM | 88.4 µM | > 100 µM | > 100 µM | > 100 µM | > 100 µM | > 100 µM |  |  | 38.3 µM |  | 57.2 µM |  |
| O=C(Nc1ccn(CCI)c(=O)n1)c1ccccc1 | > 100 µM |  | > 100 µM | > 100 µM | > 100 µM | > 100 µM | > 100 µM |  | > 100 µM | > 100 µM | > 100 µM | > 100 µM |  | > 100 µM |  | > 100 µM |  |
| O=c1[nH]n(Cc2ccccc2Cl)c2ccccc12 | > 100 µM | > 100 µM | > 100 µM | > 100 µM | > 100 µM | > 100 µM | > 100 µM | > 100 µM | > 100 µM | > 100 µM | > 100 µM | > 100 µM | > 100 µM |  | > 100 µM |  |  |
| N#CCCN(CCN(CCC#N)C(=O)Nc1ccccc1)C(=O)Nc1ccccc1 | > 100 µM | > 100 µM | 98.4 µM | > 100 µM |  | > 100 µM | > 100 µM | > 100 µM | > 100 µM | > 100 µM |  | > 100 µM | > 100 µM | > 100 µM |  | > 100 µM | > 100 µM |
| CC1(C)O[C@@H](CBr)C[C@H](C[C@H]2C[C@@H](O)C[C@@H](CCOCc3ccccc3)O2)O1 | 37.8 µM | 53.7 µM | 35.4 µM | 57.4 µM | 41.7 µM | 38.3 µM | > 100 µM | > 100 µM | 69.2 µM | 50.2 µM | 39.8 µM | 38.4 µM | 41.1 µM | 32.4 µM | 55.6 µM | 33.7 µM |  |
